Data published in US5120859A, “Chimeric amino acid analogues” (dated 1992).
Starred links: 1 amine or outer side, 2 acyl side, 3 side chain; linkers in the order of their positions; H or OH if unused. Non-standard residues stand in square brackets, D forms with d. Residues, ends and D or L forms follow the SMILES beside them. Pro(trans-4-guanidino) = N=C(N)N[C@H]1CN[C@H](C(=O)O)C1; Pro(cis-4-guanidino) = NC(N)=N[C@@H]1CN[C@H](C(=O)O)C1; X4 = N=C(N)NC[C@@H]1C[C@@H](C(=O)[*:2])N([*:1])C1; X1 = N=C(N)NC[C@@H]1C[C@H](C(=O)[*:2])N([*:1])C1; X2 = N=C(N)NC[C@H]1C[C@@H](C(=O)[*:2])N([*:1])C1; X5 = N=C(N)NC[C@H]1C[C@H](C(=O)[*:2])N([*:1])C1; X3 = N=C(N)N[C@H]1C[C@H](C(=O)[*:2])N([*:1])C1

Target: IIbIIIa receptor (Homo sapiens, UniProt P05106+P08514)
Sequence (P08514 32-1039): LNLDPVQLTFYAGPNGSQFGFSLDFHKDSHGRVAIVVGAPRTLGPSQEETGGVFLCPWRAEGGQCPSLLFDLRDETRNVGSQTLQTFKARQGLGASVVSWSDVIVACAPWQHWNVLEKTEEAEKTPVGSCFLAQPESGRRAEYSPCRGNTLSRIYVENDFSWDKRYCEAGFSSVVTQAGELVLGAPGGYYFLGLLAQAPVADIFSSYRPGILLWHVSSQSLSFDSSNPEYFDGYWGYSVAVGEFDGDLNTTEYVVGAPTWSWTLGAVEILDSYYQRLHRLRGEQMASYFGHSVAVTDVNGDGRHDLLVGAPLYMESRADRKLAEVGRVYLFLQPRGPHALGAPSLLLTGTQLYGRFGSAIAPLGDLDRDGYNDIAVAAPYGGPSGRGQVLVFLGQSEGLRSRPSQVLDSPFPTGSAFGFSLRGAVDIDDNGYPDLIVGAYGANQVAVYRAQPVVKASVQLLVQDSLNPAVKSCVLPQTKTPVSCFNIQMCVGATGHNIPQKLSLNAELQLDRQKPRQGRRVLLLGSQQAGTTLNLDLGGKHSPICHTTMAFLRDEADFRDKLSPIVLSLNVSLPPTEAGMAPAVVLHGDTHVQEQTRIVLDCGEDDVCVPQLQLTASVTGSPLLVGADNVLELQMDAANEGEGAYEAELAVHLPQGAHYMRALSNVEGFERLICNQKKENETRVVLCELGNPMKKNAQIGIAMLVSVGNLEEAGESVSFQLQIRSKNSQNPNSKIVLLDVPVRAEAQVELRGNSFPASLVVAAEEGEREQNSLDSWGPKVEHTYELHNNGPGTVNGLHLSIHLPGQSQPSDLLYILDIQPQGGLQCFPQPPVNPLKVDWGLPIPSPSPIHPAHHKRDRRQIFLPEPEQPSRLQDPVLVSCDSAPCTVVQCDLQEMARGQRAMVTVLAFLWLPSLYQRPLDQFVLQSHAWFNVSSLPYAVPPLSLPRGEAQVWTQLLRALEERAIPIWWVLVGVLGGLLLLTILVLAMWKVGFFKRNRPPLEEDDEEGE
Sequence (P05106 27-788): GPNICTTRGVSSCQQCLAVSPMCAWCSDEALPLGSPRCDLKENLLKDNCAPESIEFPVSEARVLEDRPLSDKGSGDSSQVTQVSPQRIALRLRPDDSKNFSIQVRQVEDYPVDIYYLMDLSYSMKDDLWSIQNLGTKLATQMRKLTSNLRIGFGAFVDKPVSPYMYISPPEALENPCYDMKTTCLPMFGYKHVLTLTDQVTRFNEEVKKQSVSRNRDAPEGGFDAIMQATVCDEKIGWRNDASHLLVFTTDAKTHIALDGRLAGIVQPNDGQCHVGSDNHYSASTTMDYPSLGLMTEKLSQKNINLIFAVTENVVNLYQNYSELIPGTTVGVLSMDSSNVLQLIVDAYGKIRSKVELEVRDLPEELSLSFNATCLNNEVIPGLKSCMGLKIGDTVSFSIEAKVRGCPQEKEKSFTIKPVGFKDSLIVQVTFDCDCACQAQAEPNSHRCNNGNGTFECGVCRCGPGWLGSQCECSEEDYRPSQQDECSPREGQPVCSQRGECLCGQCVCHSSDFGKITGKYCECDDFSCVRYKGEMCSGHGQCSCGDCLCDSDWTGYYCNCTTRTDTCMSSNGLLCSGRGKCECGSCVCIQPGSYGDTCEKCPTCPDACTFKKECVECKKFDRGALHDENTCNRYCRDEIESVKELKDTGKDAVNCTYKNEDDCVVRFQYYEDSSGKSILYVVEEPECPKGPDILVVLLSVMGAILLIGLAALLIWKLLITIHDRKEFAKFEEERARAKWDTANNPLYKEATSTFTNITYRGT
Test: biochemical
Conditions: read-out: IC50 (Ratio to GRGDV IC50)
Description: Microtier plates are coated with fibrinogen (10 ug/ml) and then blocked with TACTS buffer containing 0.5% BSA. (TACTS buffer contains 20 mM Tris.HCl, pH 7.5, 0.02% sodium azide, 2 mM calcium chloride, 0.05% Tween 20, 150 mM sodium chloride.) The plate is washed with phosphate buffered saline containing 0.01% Tween 20 and a dilution of the sample to be determined added, followed by addition of solubilized IIbIIIa receptor (40 ug/ml) in TACTS, 0.5% BSA. After incubation, the plate is washed and murine monoclonal anti-platelet antibody AP3 (1 ug/ml) added. After another wash, […] IgG conjugated to horseradish peroxidase are added. A final wash is performed and developing reagent buffer (10 mg o-phenylenediamine dihydrochloride, 0.0212% hydrogen peroxide, 0.22 mM citrate, 50 mM phosphate, pH 5.0) is added and then incubated until color developed. The reaction is stopped with 1N sulfuric acid and the absorbance at 492 nm is recorded. […] The ratio represents the ratio of the IC50 of the test compound to the IC50 of the internal standard (GRGDV).

| IC50 [nM] | SMILES |
| --- | --- |
| 25 | CC(C)[C@H](NC(=O)[C@H](CC(=O)O)NC(=O)CNC(=O)[C@H]1C[C@@H](CNC(=N)N)CN1C(=O)CN)C(=O)O [##STR57##] (H-G[X1]GDV-OH) |
| 37 | CC(C)[C@H](NC(=O)[C@H](CC(=O)O)NC(=O)CNC(=O)[C@H]1C[C@H](CNC(=N)N)CN1C(=O)CN)C(=O)O [##STR56##] (H-G[X5]GDV-OH) |
| 226 | CC(C)[C@H](NC(=O)[C@H](CC(=O)O)NC(=O)CNC(=O)[C@H]1C[C@H](NC(=N)N)CN1C(=O)CN)C(=O)O [##STR54##] (H-G[X3]GDV-OH) |
| 101 | CC(C)[C@H](NC(=O)[C@H](CC(=O)O)NC(=O)CNC(=O)[C@@H]1C[C@H](CNC(=N)N)CN1C(=O)CN)C(=O)O [##STR58##] (H-G[X2]GDV-OH) |
| 1700 | CC(C)[C@H](NC(=O)[C@H](CC(=O)O)NC(=O)CNC(=O)[C@@H]1C[C@@H](NC(=N)N)CN1C(=O)CN)C(=O)O [##STR60##] (H-G[Pro(trans-4-guanidino)]GDV-OH) |
| 10 | CC(C)[C@H](NC(=O)[C@H](CC(=O)O)NC(=O)CNC(=O)[C@@H]1C[C@H](CNC(=N)N)CN1)C(=O)O [##STR52##] |
| 155 | CC(C)[C@H](NC(=O)[C@H](CC(=O)O)NC(=O)CNC(=O)[C@@H]1C[C@H](NC(=N)N)CN1)C(=O)O [##STR59##] (H-[Pro(cis-4-guanidino)]GDV-OH) |
| 30 | CC(C)[C@H](NC(=O)[C@H](CC(=O)O)NC(=O)CNC(=O)[C@@H]1C[C@@H](CNC(=N)N)CN1C(=O)CN)C(=O)O [##STR53##] (H-G[X4]GDV-OH) |
| 6.4 | CC(C)[C@H](NC(=O)[C@H](CC(=O)O)NC(=O)CNC(=O)[C@H]1C[C@H](CNC(=N)N)CN1)C(=O)O [##STR51##] |
| 565 | CC(C)[C@H](NC(=O)[C@H](CC(=O)O)NC(=O)CNC(=O)[C@@H]1C[C@H](NC(=N)N)CN1C(=O)CN)C(=O)O [##STR55##] (H-G[Pro(cis-4-guanidino)]GDV-OH) |
